Assay results taken from publication PMC7822063, “Analogues of 2′-hydroxychalcone with modified C4-substituents as the inhibitors against human acetylcholinesterase” (Journal of Enzyme Inhibition and Medicinal Chemistry, 2020).

Tests used:
human recombinant AChE = human recombinant AChE (Homo sapiens, UniProt P22303); assay: biochemical; conditions: for inhibition at 10 µM / IC50: mean of triplicate; for Selectivity index: IC50 (BuChE)/IC50 (AChE)
Description: To determine the inhibitory activity of the target compounds towards cholinesterases, the AChE and BuChE inhibition assays were performed in 96 well plates by the method of Ellman with slight modifications. […] Then, the mixture was incubated for 20 min at 37 °C. Subsequently, the reaction was initiated by addition of 50 μL (0.120 mM) of the substrate, acetylthiocholine (ATC) iodide or butyrylthiocholine (BTC) iodide (depending on the enzyme). […] Each assay was performed in triplicate. The percentage of inhibition was calculated using the following expression: (E–S)/E ×100 where E is the activity of the enzyme without test compound and S is the activity of the enzyme with the test compound. IC50 values were obtained from concentration-inhibition experiments by nonlinear regression analysis using PRISM® v5.0 (GraphPad Inc., San Diego, CA).
The designed 2′-hydroxychalcone derivatives were evaluated for their in vitro inhibitory activities against human recombinant AChE according to Ellman’s colorimetric assay method.

equine BuChE = equine BuChE (Equus caballus, UniProt P81908); assay: biochemical; format: biochemical; conditions: mean of triplicate
Sequence of equine BuChE (P81908 whole entry): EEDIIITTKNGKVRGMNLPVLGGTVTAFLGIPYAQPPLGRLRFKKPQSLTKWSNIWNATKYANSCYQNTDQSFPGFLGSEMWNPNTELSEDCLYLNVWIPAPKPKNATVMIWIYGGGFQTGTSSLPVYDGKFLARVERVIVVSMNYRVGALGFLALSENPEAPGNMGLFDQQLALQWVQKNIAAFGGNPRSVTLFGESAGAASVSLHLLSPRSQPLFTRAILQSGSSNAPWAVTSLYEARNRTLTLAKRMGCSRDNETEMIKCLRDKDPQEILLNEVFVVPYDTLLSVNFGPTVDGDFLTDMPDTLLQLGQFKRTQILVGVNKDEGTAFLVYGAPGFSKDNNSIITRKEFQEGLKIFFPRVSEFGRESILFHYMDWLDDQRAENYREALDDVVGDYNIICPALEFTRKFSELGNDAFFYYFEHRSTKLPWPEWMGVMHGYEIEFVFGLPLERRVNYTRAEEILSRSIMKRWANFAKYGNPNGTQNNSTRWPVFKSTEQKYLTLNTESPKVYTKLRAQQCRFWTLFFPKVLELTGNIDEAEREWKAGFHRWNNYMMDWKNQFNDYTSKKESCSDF

Sequence of human recombinant AChE (P22303 32-614): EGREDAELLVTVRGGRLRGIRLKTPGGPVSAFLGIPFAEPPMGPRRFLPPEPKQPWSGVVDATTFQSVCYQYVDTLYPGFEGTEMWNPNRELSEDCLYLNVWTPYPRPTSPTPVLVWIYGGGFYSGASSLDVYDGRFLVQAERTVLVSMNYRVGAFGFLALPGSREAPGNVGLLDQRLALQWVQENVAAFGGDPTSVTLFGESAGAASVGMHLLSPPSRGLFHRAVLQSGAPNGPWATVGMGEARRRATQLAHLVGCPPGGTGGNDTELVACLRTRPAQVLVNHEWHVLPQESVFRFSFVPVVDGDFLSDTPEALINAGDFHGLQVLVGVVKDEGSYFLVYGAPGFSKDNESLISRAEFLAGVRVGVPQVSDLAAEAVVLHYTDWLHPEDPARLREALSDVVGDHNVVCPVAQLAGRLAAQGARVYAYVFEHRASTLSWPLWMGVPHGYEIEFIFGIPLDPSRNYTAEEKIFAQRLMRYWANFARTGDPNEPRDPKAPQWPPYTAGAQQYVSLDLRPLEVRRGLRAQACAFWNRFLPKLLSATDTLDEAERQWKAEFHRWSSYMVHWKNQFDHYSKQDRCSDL

Compound | inhibition at 10 µM (human recombinant AChE) | IC50 (equine BuChE) | Selectivity index (human recombinant AChE) | IC50 (human recombinant AChE) | Equine BuChE IC50 (equine BuChE)
CCN(CC)C(=O)Cc1ccc(/C=C/C(=O)c2ccc(OC)cc2O)cc1 [Compound 4a, (E)-N,N-diethyl-2-(4-(3-(2-hydroxy-4-methoxyphenyl)-3-oxoprop-1-en-1yl)phenyl)acetamide] | 67.2% |  |  |  | 
CCN(CC)C(=O)Cc1ccc(/C=C/C(=O)c2cc(OC)c(OC)cc2O)cc1 [Compound 4b, (E)-N,N-diethyl-2-(4-(3-(2-hydroxy-4,5-dimethoxyphenyl)-3-oxoprop-1-en-1-yl)phenyl)acetamide] | 58.5% |  |  |  | 
CCN(CC)C(=O)Cc1ccc(/C=C/C(=O)c2c(O)cc(OC)cc2OC)cc1 [Compound 4c, (E)-N,N-diethyl-2-(4-(3-(2-hydroxy-4,6-dimethoxyphenyl)-3-oxoprop-1-en-1-yl)phenyl)acetamide] | 87.5% | > 100 µM | >30 | 3.3 ± 1.3 µM | 
COc1ccc(C(=O)/C=C/c2ccc(CC(=O)N3CCCC3)cc2)c(O)c1 [Compound 4d, (E)-1-(2-hydroxy-4-methoxyphenyl)-3-(4-(2-oxo-2-(pyrrolidin-1-yl)ethyl)phenyl)prop-2-en-1-one] | 30.8% |  |  |  | 
COc1cc(O)c(C(=O)/C=C/c2ccc(CC(=O)N3CCCC3)cc2)cc1OC [Compound 4e, (E)-1-(2-hydroxy-4,5-dimethoxyphenyl)-3-(4-(2-oxo-2-(pyrrolidin-1-yl)ethyl)phenyl)prop-2-en-1-one] | 58.9% |  |  |  | 
O=C(O)Cc1ccc(/C=C/C(=O)c2ccccc2O)cc1 [Compound 4f, (E)-2-(4-(3-(2-hydroxyphenyl)-3-oxoprop-1-en-1-yl)phenyl)acetic acid] | 10.7% |  |  |  | 
COc1ccc(O)c(C(=O)/C=C/c2ccc(CC(=O)O)cc2)c1 [Compound 4g, (E)-2-(4-(3-(2-hydroxy-5-methoxyphenyl)-3-oxoprop-1-en-1-yl)phenyl)acetic acid] | 27% |  |  |  | 
COc1cc(O)c(C(=O)/C=C/c2ccc(CC(=O)O)cc2)c(OC)c1 [Compound 4h, (E)-2-(4-(3-(2-hydroxy-4,6-dimethoxyphenyl)-3-oxoprop-1-en-1-yl)phenyl)acetic acid] | 15.6% |  |  |  | 
COc1ccc(C(=O)/C=C/c2ccc(OCCN3CCCCC3)cc2)c(O)c1 [Compound 8a, (E)-1-(2-hydroxy-4-methoxyphenyl)-3-(4-(2-(piperidin-1-yl)ethoxy)phenyl)prop-2-en-1-one] | 79.9% | > 100 µM | >24 | 4.2 ± 1.3 µM | inactive
COc1ccc(C(=O)/C=C/c2ccc(OCCN3CCCC3)cc2)c(O)c1 [Compound 8b, (E)-1-(2-hydroxy-4-methoxyphenyl)-3-(4-(2-(pyrrolidin-1-yl)ethoxy)phenyl)prop-2-en-1-one] | 83% | 65.6 ± 14.8 µM | 5.1 | 12.8 ± 4.8 µM | 
COc1cc(O)c(C(=O)/C=C/c2ccc(OCCN3CCCCC3)cc2)cc1OC [Compound 8c, (E)-1-(2-hydroxy-4,5-dimethoxyphenyl)-3-(4-(2-(piperidin-1-yl)ethoxy)phenyl)prop-2-en-1-one] | 52.5% |  |  |  | 
COc1cc(O)c(C(=O)/C=C/c2ccc(OCCN3CCCC3)cc2)cc1OC [Compound 8d, (E)-1-(2-hydroxy-4,5-dimethoxyphenyl)-3-(4-(2-(pyrrolidin-1-yl)ethoxy)phenyl)prop-2-en-1-one] | 80.6% | 89.9 ± 12 µM | 5.7 | 15.9 ± 1.8 µM | 
COc1cc(O)c(C(=O)/C=C/c2ccc(OCCN3CCCCC3)cc2)c(OC)c1 [Compound 8e, (E)-1-(2-hydroxy-4,6-dimethoxyphenyl)-3-(4-(2-(piperidin-1-yl)ethoxy)phenyl)prop-2-en-1-one] | 83.6% | 18.3 ± 8 µM | 4.0 | 4.6 ± 0.9 µM | 
COc1cc(O)c(C(=O)/C=C/c2ccc(OCCN3CCCC3)cc2)c(OC)c1 [Compound 8f, (E)-1-(2-hydroxy-4,6-dimethoxyphenyl)-3-(4-(2-(pyrrolidin-1-yl)ethoxy)phenyl)prop-2-en-1-one] | 81.4% | 31.3 ± 8.2 µM | 1.7 | 18.5 ± 3.8 µM | 
